Measurements from publication PMC10935503 (Acta Pharmaceutica Sinica. B, 2023).
Converted amounts (≈) assume the structure as drawn.

Key:
[1] = system: main CYP enzymes (CYP1A2, CYP2C9, CYP2C19, CYP2D6, CYP3A4; range over isoforms); assay: Cytochrome P450 inhibition assay, summary over isoforms; assay type: in vitro ADME; conditions: human, human liver microsomes
[2] = Cytotoxicity in mock-infected MT-4 cells, MTT method; assay type: cell-based; conditions: human
HIV-1 WT strain (IIIB) = assay: Anti-HIV-1 activity in MT-4 cells, MTT method, WT strain IIIB; assay type: cell-based; conditions: Human immunodeficiency virus 1, IIIB, MT4, read-out: EC50 IIIB
HIV-1 Y181C = assay: microbe, parasite or virus in culture; assay type: cell-based
CYP2C9 = CYP2C9 (Homo sapiens, UniProt P11712); assay: Cytochrome P450 inhibition assay, CYP2C9; assay type: in vitro ADME
Sequence of CYP2C9 (P11712 whole entry): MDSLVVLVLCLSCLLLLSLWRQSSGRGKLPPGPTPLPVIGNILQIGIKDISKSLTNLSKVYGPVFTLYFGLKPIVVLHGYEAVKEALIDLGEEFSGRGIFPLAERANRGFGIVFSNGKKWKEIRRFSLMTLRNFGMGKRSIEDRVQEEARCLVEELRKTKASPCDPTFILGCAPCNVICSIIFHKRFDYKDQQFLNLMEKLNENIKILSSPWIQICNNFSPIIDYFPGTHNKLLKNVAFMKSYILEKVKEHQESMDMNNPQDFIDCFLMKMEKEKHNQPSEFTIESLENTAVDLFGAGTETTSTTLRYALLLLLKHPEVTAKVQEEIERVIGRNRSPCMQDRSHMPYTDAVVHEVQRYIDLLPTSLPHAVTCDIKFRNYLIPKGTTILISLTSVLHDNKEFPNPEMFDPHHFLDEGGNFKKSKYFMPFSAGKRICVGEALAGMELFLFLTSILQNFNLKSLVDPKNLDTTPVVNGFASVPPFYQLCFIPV

hERG channel = hERG channel (Homo sapiens, UniProt Q12809); assay: hERG channel inhibition assay, manual patch-clamp in HEK293 cells; assay type: cell-based; conditions: HEK293 cells stably transfected with hERG cDNA
Sequence of hERG channel (Q12809 whole entry): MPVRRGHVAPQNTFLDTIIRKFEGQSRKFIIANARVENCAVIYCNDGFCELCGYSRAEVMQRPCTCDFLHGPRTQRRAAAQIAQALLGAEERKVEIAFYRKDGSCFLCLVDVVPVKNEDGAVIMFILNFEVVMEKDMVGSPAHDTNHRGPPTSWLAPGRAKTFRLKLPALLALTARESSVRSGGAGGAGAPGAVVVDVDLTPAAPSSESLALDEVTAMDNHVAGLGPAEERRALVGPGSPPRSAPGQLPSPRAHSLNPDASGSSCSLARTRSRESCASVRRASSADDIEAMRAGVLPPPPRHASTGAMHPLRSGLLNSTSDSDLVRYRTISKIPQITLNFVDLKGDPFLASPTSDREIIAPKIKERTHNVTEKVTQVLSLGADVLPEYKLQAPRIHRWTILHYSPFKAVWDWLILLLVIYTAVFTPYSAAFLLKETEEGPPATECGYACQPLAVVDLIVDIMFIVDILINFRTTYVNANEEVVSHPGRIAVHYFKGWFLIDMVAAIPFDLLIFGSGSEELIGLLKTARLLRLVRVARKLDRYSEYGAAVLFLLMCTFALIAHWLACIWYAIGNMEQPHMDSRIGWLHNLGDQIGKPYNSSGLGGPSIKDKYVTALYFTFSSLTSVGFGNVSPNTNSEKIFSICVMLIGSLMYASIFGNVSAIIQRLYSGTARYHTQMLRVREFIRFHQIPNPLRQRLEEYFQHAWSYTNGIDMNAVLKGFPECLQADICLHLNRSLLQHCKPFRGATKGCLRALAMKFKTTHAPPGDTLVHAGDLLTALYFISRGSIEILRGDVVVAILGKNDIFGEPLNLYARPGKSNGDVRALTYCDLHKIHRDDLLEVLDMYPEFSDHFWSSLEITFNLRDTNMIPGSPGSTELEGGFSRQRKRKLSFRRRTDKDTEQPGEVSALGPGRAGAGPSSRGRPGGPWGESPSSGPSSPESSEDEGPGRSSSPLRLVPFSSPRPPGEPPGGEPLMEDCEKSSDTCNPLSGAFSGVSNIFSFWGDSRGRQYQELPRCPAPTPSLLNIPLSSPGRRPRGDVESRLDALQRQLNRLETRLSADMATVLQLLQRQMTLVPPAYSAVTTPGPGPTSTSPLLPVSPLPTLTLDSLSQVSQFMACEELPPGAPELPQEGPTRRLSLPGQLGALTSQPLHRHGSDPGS

HIV-1 L100I = assay: microbe, parasite or virus in culture; assay type: cell-based
CYP2D6 = CYP2D6 (Homo sapiens, UniProt P10635); assay: biochemical
Sequence of CYP2D6 (P10635 whole entry): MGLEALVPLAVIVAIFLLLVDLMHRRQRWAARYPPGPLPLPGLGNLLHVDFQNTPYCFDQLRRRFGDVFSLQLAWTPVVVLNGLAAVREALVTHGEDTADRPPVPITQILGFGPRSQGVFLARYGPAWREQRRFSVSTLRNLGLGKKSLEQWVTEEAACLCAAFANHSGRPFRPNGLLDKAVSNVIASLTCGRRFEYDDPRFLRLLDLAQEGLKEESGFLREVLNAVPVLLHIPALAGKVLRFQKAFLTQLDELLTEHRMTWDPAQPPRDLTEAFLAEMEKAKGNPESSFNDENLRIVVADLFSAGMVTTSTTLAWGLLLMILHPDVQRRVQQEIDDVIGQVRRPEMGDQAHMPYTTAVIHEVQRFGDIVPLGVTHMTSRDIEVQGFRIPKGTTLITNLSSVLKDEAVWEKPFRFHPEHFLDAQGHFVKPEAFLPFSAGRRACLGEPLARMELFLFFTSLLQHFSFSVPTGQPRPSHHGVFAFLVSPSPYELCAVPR

HIV-1 RT = HIV-1 RT (Human immunodeficiency virus type 1 group M subtype B, UniProt P03366); assay: HIV-1 RT inhibition assay; assay type: biochemical
HIV-1 K103N = assay: microbe, parasite or virus in culture; assay type: cell-based
CYP3A4 = CYP3A4 (Homo sapiens, UniProt P08684); assay: Cytochrome P450 inhibition assay, CYP3A4
Sequence of CYP3A4 (P08684 whole entry): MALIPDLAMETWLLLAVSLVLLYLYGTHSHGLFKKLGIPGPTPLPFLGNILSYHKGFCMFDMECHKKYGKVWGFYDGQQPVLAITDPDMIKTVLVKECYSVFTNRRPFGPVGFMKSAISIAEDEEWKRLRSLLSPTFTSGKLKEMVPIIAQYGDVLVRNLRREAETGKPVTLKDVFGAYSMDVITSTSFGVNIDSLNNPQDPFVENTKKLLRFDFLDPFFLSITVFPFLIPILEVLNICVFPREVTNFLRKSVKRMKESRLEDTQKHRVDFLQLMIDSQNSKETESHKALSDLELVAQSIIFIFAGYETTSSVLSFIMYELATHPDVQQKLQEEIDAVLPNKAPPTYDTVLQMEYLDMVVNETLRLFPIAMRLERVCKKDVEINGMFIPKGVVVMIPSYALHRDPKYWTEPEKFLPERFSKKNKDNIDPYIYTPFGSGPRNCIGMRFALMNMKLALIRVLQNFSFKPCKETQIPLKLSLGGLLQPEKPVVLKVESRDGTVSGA

[3] = system: HIV-1 K103N + Y181C (RES056); assay: microbe, parasite or virus in culture; assay type: cell-based
[4] = In vivo pharmacokinetics in SD rats; set-up: species or system Sprague–Dawley (SD) rats
HIV-1 F227L + V106A = assay: microbe, parasite or virus in culture; assay type: cell-based
CYP2C19 = CYP2C19 (Homo sapiens, UniProt P33261); assay: Cytochrome P450 inhibition assay, CYP2C19; assay type: in vitro ADME
Sequence of CYP2C19 (P33261 whole entry): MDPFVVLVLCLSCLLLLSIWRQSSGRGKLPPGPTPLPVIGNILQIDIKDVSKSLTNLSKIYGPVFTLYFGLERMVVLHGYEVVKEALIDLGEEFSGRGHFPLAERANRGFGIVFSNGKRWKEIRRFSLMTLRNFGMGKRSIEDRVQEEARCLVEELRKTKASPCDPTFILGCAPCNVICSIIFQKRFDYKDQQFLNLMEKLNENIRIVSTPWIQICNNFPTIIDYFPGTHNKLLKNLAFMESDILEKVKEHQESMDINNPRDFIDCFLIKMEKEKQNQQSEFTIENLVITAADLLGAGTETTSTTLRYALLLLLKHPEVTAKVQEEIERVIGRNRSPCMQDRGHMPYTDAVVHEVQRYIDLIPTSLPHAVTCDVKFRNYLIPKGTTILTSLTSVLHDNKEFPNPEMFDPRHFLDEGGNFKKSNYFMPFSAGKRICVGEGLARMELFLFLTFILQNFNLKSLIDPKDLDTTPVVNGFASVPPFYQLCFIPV

[5] = Single-dose acute toxicity in mice; assay type: in vivo; conditions: Kunming mice, single intragastric dose 2000 mg/kg, 7 days observation
CYP1A2 = target: T1, CYP1A2 (Homo sapiens, UniProt P05177); assay: Cytochrome P450 inhibition assay, CYP1A2
T1 sequence (P05177 1-516): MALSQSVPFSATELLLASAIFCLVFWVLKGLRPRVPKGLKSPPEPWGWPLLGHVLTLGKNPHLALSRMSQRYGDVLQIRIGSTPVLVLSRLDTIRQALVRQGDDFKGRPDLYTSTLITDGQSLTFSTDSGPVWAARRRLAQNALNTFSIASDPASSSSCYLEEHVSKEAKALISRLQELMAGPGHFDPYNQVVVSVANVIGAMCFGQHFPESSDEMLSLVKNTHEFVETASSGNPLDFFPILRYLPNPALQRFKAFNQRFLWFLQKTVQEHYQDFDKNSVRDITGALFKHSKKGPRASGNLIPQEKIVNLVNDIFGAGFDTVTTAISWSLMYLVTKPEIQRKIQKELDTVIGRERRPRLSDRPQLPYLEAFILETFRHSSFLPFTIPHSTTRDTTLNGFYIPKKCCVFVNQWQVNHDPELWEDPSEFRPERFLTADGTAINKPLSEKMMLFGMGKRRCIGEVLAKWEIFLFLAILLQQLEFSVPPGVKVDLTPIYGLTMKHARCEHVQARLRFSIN

HIV-1 Y188L = assay: microbe, parasite or virus in culture; assay type: cell-based
HIV-1 E138K = assay: microbe, parasite or virus in culture; assay type: cell-based
[6] = resistance fold, EC50 (mutant strain)/EC50 (WT strain)
[7] = selectivity index, ratio of CC50/EC50
[8] = Sprague-Dawley, rat, plasma, iv, 2 mg/kg
[9] = Sprague-Dawley, rat, plasma, po, 20 mg/kg

`Cc1cc(/C=C/C#N)cc(C)c1Oc1nc(NC2CCN(Cc3ccc(S(N)(=O)=O)cc3)CC2)nc2c1SCCC2` [compound 23h, (E)-4-((4-((4-(4-(2-Cyanovinyl)-2,6-dimethylphenoxy)-7,8-dihydro-6H-thiopyrano[3,2-d]pyrimidin-2-yl)amino)piperidin-1-yl)methyl)benzenesulfonamide] showed an IC50 at 10 min [1] of 3410 to 50000 nM, a CC50 at 5 days [2] of 3310 ± 1700 nM and an EC50 (HIV-1 WT strain (IIIB)) of 3.43 ± 2 nM. For the same molecule, the EC50 (HIV-1 Y181C; Human immunodeficiency virus 1, MT4, read-out: EC50 Y181C) was 8.46 ± 1.17 nM, the “Fold improvement in potency compared to ETR, Y181C” value (HIV-1 Y181C; ratio of EC50 values vs ETR) was 1.7 fold and the “RF Y181C” value (HIV-1 Y181C; [6]) was 2.5. For the same molecule, the “SI Y181C” value (HIV-1 Y181C; [7]) was 391, the IC50 (CYP2C9) was 3410 nM and the IC50 (hERG channel) was 79 nM. The EC50 (HIV-1 L100I; Human immunodeficiency virus 1, MT4, read-out: EC50 L100I) was 4.46 ± 0.36 nM, the “Times greater activity than ETR, L100I” value (HIV-1 L100I; ratio of EC50 values vs ETR) was 2.0 times and the “RF L100I” value (HIV-1 L100I; [6]) was 1.3. For the same molecule, the “SI L100I” value (HIV-1 L100I; [7]) was 742, the solubility (physchem; pH 2, aqueous buffer) was 161 µg/mL (≈ 273 µM) and the solubility (physchem; pH 7, aqueous buffer) was 11.7 µg/mL (≈ 19.8 µM). For the same molecule, the solubility (physchem; pH 7.4, aqueous buffer) was 3.04 µg/mL (≈ 5.15 µM), the IC50 (CYP2D6) was 36800 nM and the IC50 (HIV-1 RT) was 529 ± 142 nM. The EC50 (HIV-1 K103N; Human immunodeficiency virus 1, MT4, read-out: EC50 K103N) was 6.13 ± 0.12 nM, the “RF K103N” value (HIV-1 K103N; [6]) was 1.8 and the “SI K103N” value (HIV-1 K103N; [7]) was 540. The IC50 (CYP3A4) was 13500 nM, the EC50 ([3]; Human immunodeficiency virus 1, MT4, read-out: EC50 RES056) was 15.2 ± 9.44 nM and the “Fold greater potency than EFV, RES056” value ([3]; ratio of EC50 values vs EFV) was 7.5 fold. For the same molecule, the “Fold greater potency than ETR, RES056” value ([3]; ratio of EC50 values vs ETR) was 2.3 fold, the “RF RES056” value [3, 6] was 4.4 and the “SI RES056” value [3, 7] was 218. For the same molecule, the “V (iv)” value ([4]; SD rats, iv 2 mg/kg, mean ± SD, n = 3, 2 mg/kg) was 49.7 L/kg, the AUC(0-inf) [4, 8] was 1210 ± 78.9 ng·h/mL and the AUC(0-t) [4, 8] was 1150 ± 69.7 ng·h/mL. The MRT inf [4, 8] was 2.03 ± 0.41 h, the MRT last [4, 8] was 1.56 ± 0.17 h and the clearance [4, 8] was 277 mL/min/kg. The half-life [4, 8] was 2.09 ± 0.39 h, the bioavailability ([4]; Sprague-Dawley, rat, plasma, oral, 20 mg/kg) was 15.3% and the AUC(0-inf) [4, 9] was 1860 ± 1680 ng·h/mL. The AUC(0-t) [4, 9] was 1680 ± 1480 ng·h/mL, the Cmax [4, 9] was 333 ± 276 ng/mL and the MRT inf [4, 9] was 5.02 ± 0.48 h. The MRT last [4, 9] was 4.1 ± 0.12 h, the Tmax [4, 9] was 1.5 ± 0.87 h and the half-life [4, 9] was 3 ± 0.74 h. For the same molecule, the EC50 (HIV-1 F227L + V106A; Human immunodeficiency virus 1, MT4, read-out: EC50 F227L + V106A) was 5.35 ± 0.69 nM, the “Fold better than EFV, F227L + V106A” value (HIV-1 F227L + V106A; ratio of EC50 values vs EFV) was 14.5 fold and the “Fold better than RPV, F227L + V106A” value (HIV-1 F227L + V106A; ratio of EC50 values vs RPV) was 15.3 fold. For the same molecule, the “RF F227L + V106A” value (HIV-1 F227L + V106A; [6]) was 1.6, the “SI F227L + V106A” value (HIV-1 F227L + V106A; [7]) was 619 and the IC50 (CYP2C19) was 15600 nM. The “Death or signs of intoxication” value [5] was “no death or signs of intoxication”, the IC50 (CYP1A2) was > 50000 nM and the EC50 (HIV-1 Y188L; Human immunodeficiency virus 1, MT4, read-out: EC50 Y188L) was 16.5 ± 5.18 nM. For the same molecule, the “RF Y188L” value (HIV-1 Y188L; [6]) was 4.8, the “SI Y188L” value (HIV-1 Y188L; [7]) was 201 and the EC50 (HIV-1 E138K; Human immunodeficiency virus 1, MT4, read-out: EC50 E138K) was 21.4 ± 4.19 nM. The “RF E138K” value (HIV-1 E138K; [6]) was 6.2 and the “SI E138K” value (HIV-1 E138K; [7]) was 155.
